Measurements taken from patent US6518423B1, “Benzopiperidine derivatives” (Eisai Co., Ltd., priority 1996, dated 2003).

melting point | Compound
230 to 231 °C | CCc1nccn1Cc1ccc2c(c1)Nc1nccnc1S2
231 to 233 °C | FC(F)(F)c1nccn1Cc1ccc2c(c1)Nc1nccnc1S2
216 to 218 °C | c1ccc(-c2cn(Cc3ccc4c(c3)Nc3nccnc3S4)cn2)cc1
185 to 188 °C | O=C(O)c1ccc(Cc2nccn2Cc2ccc3c(c2)Nc2nccnc2S3)cc1
280 °C (dec.) | C/C(=C\c1ncn(Cc2ccc3c(c2)Nc2nccnc2S3)c1C)C(N)=O
> 290 °C | C/C(=C\c1ncn(Cc2ccc3c(c2)Nc2nccnc2S3)c1C)C(=O)O
172 °C | CC/C(=C\c1c(C)ncn1Cc1ccc2c(c1)Nc1nccnc1S2)C(=O)O
259 to 261 °C | C/C(O)=C(\C#N)C(=O)Nc1ccc(-c2cn(Cc3ccc4c(c3)Nc3nccnc3S4)cn2)cc1
247 to 250 °C | OCc1nccn1Cc1ccc2c(c1)Nc1nccnc1S2
240 to 241 °C | O=C(O)c1ccc(C(O)c2nccn2Cc2ccc3c(c2)Nc2nccnc2S3)cc1 (stereo not shown)
178 to 182 °C | Cc1ncn(Cc2ccc3c(c2)Nc2nccnc2S3)c1C(C)O (stereo not shown)
269 to 271 °C | O=c1ccn(Cc2ccc3c(c2)Nc2nccnc2S3)c(=O)[nH]1
98 to 101 °C | O=C(O)C1CC2(C1)C1CCCC2CN(Cc2ccc3c(c2)Nc2nccnc2S3)C1 (stereo not shown)
265 °C (dec.) | c1cnc2ncn(Cc3ccc4c(c3)Nc3nccnc3S4)c2c1
197 to 198 °C | c1ccn(Cc2ccc3c(c2)Nc2nccnc2S3)c1
179 to 183 °C | c1cc(CCc2ccc3c(c2)Nc2nccnc2S3)ccn1
218 to 221 °C | OC(c1cncnc1)c1ccc2c(c1)Nc1nccnc1S2 (stereo not shown)
105 to 107 °C | OC(c1ccc2c(c1)Nc1nccnc1S2)c1ncccn1 (stereo not shown)
180 to 181 °C | CC(c1cccnc1)c1ccc2c(c1)Nc1nccnc1S2 (stereo not shown)
160 to 170 °C (dec.) | CCOC(=O)/C=C/c1cccc(C(O)c2ccc3c(c2)Nc2nccnc2S3)n1 (stereo not shown)
156 to 158 °C | OC(CCc1ccccc1)c1ccc2c(c1)Nc1nccnc1S2 (stereo not shown)
217 to 218 °C (dec.) | O=C(O)CC1(O)C2CCCCCC1CN(Cc1ccc3c(c1)Nc1nccnc1S3)C2 (stereo not shown)
215 to 219 °C | CN(C)S(=O)(=O)NCC1C2CCCC1CN(Cc1ccc3c(c1)Nc1nccnc1S3)C2 (stereo not shown)
228 to 233 °C | CC(C(=O)O)c1ccc(NCc2ccc3c(c2)Nc2nccnc2S3)cc1.Cl (stereo not shown)
243 to 245 °C (dec.) | O=C(NCc1ccc2c(c1)Nc1nccnc1S2)c1cccnc1

melting point | Compound
320 to 322 °C | O=C(Nc1nccs1)c1ccc2c(c1)Nc1nccnc1S2
274 to 275 °C | CCNC(=O)c1ccc2c(c1)Nc1nccnc1S2
265 to 268 °C | CN(C)c1ncnc2ncn(Cc3ccc4c(c3)Nc3nccnc3S4)c12
231 to 233 °C | CN(C)c1ncnc2c1nc(C(F)(F)F)n2Cc1ccc2c(c1)Nc1nccnc1S2
> 275 °C | O=c1[nH]cnc2ncn(Cc3ccc4c(c3)Nc3nccnc3S4)c12
191 to 193 °C | Cc1nc2cncnc2n1Cc1ccc2c(c1)Nc1nccnc1S2
238 to 240 °C | O=C(O)C1CCN(c2ncnc3c2ncn3Cc2ccc3c(c2)Nc2nccnc2S3)CC1
237 to 238 °C | CC1CC(C)CN(c2ncnc3c2ncn3Cc2ccc3c(c2)Nc2nccnc2S3)C1 (stereo not shown)
213 to 214 °C | c1ccc(CN2CCN(c3ncnc4c3ncn4Cc3ccc4c(c3)Nc3nccnc3S4)CC2)cc1
226 to 229 °C | NCCN1CCN(c2ncnc3c2ncn3Cc2ccc3c(c2)Nc2nccnc2S3)CC1
> 275 °C | CCc1ncnc2ncn(Cc3ccc4c(c3)Nc3nccnc3S4)c12
268 to 271 °C | CC(C)(O)c1ncnc2ncn(Cc3ccc4c(c3)Nc3nccnc3S4)c12
143 to 145 °C | CC(C)(O)c1ncnc2c1ncn2Cc1ccc2c(c1)Nc1nccnc1O2
210 to 212 °C | CC(O)c1ncnc2c1ncn2Cc1ccc2c(c1)Nc1nccnc1S2 (stereo not shown)
> 280 °C | Cl.N=C(N)c1ccc2c(c1)Nc1nccnc1S2
> 280 °C | Cl.N=C(N)Cc1ccc2c(c1)Nc1nccnc1S2
200 to 202 °C | N/C(Cc1ccc2c(c1)Nc1nccnc1S2)=N\S(=O)(=O)C(F)(F)F
206 to 207 °C | N/C(Cc1ccc2c(c1)Nc1nccnc1S2)=N\S(=O)(=O)c1ccccc1
> 280 °C | CN1CCCN=C1Cc1ccc2c(c1)Nc1nccnc1S2.Cl
153 to 155 °C (dec.) | Cl.c1ccc(CN2CCCN=C2Cc2ccc3c(c2)Nc2nccnc2S3)cc1
156 to 163 °C | Cl.OC1CN=C(Cc2ccc3c(c2)Nc2nccnc2S3)NC1 (stereo not shown)
195 to 196 °C | N#C/N=C(/Cc1ccc2c(c1)Nc1nccnc1S2)NCc1ccccn1
241 to 245 °C | N#CN=C(Cc1ccc2c(c1)Nc1nccnc1S2)NCc1ccc(S(N)(=O)=O)cc1
279 to 282 °C | Cl.N=C(N)NCc1ccc2c(c1)Nc1nccnc1S2
106 to 108 °C | COC(=O)CC1C2CCCC1CN(Cc1ccc3c(c1)N(C(=O)OC)c1nccnc1S3)C2 (stereo not shown)

melting point | Compound
160 to 162 °C | COC(=O)CC1C2CCCC1CN(Cc1ccc3c(c1)N(C(C)=O)c1nccnc1S3)C2 (stereo not shown)
194 to 196 °C | CC(=O)NCCC1CCN(Cc2ccc3c(c2)Nc2nccnc2S3)CC1
157 to 158 °C | O=S(=O)(NC1CCN(Cc2ccc3c(c2)Nc2nccnc2S3)CC1)c1ccccc1
172 to 174 °C | COC1CCN(Cc2ccc3c(c2)Nc2nccnc2S3)CC1
199 to 203 °C | O=C1CCC2(CCN(Cc3ccc4c(c3)Nc3nccnc3S4)CC2)O1
194 to 197 °C | NC(=O)C1CCCN1Cc1ccc2c(c1)Nc1nccnc1S2 (stereo not shown)
168 to 172 °C | CC1CCCC(C)N1Cc1ccc2c(c1)Nc1nccnc1S2 (stereo not shown)
163 to 166 °C | c1cc2c(cn1)Sc1ccc(CN3CCCCC3)cc1N2
221 to 222 °C | CS(=O)(=O)N1CCN(Cc2ccc3c(c2)Nc2nccnc2S3)CC1
205 to 210 °C | CN(C)S(=O)(=O)NC1CCN(Cc2cnc3c(c2)Nc2nccnc2S3)CC1
173 to 176 °C | CNS(=O)(=O)NCC1CN(Cc2ccc3c(c2)Nc2nccnc2S3)C1
190 to 191 °C | O=C(CCCC1CCN(Cc2ccc3c(c2)Nc2nccnc2S3)CC1)Nc1nnn[nH]1
181 to 184 °C | CN1C2CCC1CC(NC(=O)CC1CC3(CCN(Cc4ccc5c(c4)Nc4nccnc4S5)CC3)C1)C2 (stereo not shown)
296 to 300 °C (dec.) | CN(C)c1c(N2CCN(Cc3ccc4c(c3)Nc3nccnc3S4)CC2)c(=O)c1=O
158 to 160 °C | CS(=O)(=O)N1CCCN(Cc2ccc3c(c2)Nc2nccnc2S3)CC1
193 to 194 °C | O=S(=O)(CCC1CCN(Cc2ccc3c(c2)Nc2nccnc2S3)CC1)N1CCOCC1
193 to 195 °C | CCC/C(=N\OCC(=O)O)C1CCN(Cc2ccc3c(c2)Nc2nccnc2S3)CC1
167 to 170 °C | O=C(O)CC(=O)N1CCC(NCc2ccc3c(c2)Nc2nccnc2S3)CC1
130 to 134 °C | O=C(O)CCN1CCC(NCc2ccc3c(c2)Nc2nccnc2S3)CC1
200 to 203 °C | O=C(O)/C=C1\CCCN(Cc2ccc3c(c2)Nc2nccnc2S3)C1
258 to 262 °C | O=C(O)COc1ccc(C2CCN(Cc3ccc4c(c3)Nc3nccnc3S4)CC2)cc1
130 to 132 °C | O=C(O)Cc1cccc(C2CCN(Cc3ccc4c(c3)Nc3nccnc3S4)CC2)c1
152 to 154 °C | O=C(O)Cc1ccccc1C1CCN(Cc2ccc3c(c2)Nc2nccnc2S3)CC1
230 to 232 °C | CC(C)(CC(=O)O)CC1CCN(Cc2ccc3c(c2)Nc2nccnc2S3)CC1
105 to 110 °C | CC(CCC1(CO)CCN(Cc2ccc3c(c2)Nc2nccnc2S3)CC1)C(=O)O (stereo not shown)

melting point | Compound
149 to 151 °C | CC1(CC(=O)O)CC2(CCN(Cc3ccc4c(c3)Nc3nccnc3S4)CC2)C1
133 to 135 °C | CCCCC1(CC(=O)O)CC2(CCN(Cc3ccc4c(c3)Nc3nccnc3S4)CC2)C1
167 to 173 °C | O=C(O)C(F)=C1CCN(Cc2ccc3c(c2)Nc2nccnc2S3)CC1
171 to 177 °C (dec.) | COc1cc(C2CCN(Cc3ccc4c(c3)Nc3nccnc3S4)CC2)ccc1CC(=O)O
214 to 216 °C | O=C(O)C=C1CCN(Cc2ccc3c(c2)Nc2nccnc2S3)CC1
124 to 128 °C | O=C(O)CC1=CCN(Cc2ccc3c(c2)Nc2nccnc2S3)CC1
> 297 °C | O=C(O)C1(c2ccccc2)CCN(Cc2ccc3c(c2)Nc2nccnc2S3)CC1
229 to 231 °C | CN1c2ccccc2Nc2nccnc21
185 to 188 °C | COCN1c2ccccc2Nc2nccnc21
275 °C | CN1c2ccc(/C=C/C(=O)O)cc2Nc2nccnc21
273 to 274 °C | O=C(O)CCCN1c2ccccc2Nc2nccnc21
203 to 204 °C | CN1c2ccc(C(O)c3nccs3)cc2Nc2nccnc21 (stereo not shown)
> 275 °C | CN1c2ccc(C(O)c3cccs3)cc2Nc2nccnc21 (stereo not shown)
104 to 108 °C | CC(CCC1C2CCCC1CN(Cc1ccc3c(c1)Nc1nccnc1S3)C2)C(=O)O (stereo not shown)
261 to 262 °C | CN1c2ccc(C(=O)c3ccccn3)cc2Nc2nccnc21
> 275 °C | CN1c2ccc(CNC(N)=O)cc2Nc2nccnc21
> 275 °C | CN1c2ccc(C#CC(=O)O)cc2Nc2nccnc21
232 to 235 °C | c1cnc(NCc2ccc3c(c2)Nc2nccnc2S3)nc1
179 to 182 °C | c1ccc(CCNCc2ccc3c(c2)Nc2nccnc2S3)nc1
162 to 165 °C | Cc1cc(C)nc(NCc2ccc3c(c2)Nc2nccnc2S3)c1
158 to 161 °C | FC(F)(F)c1cnc(NCc2ccc3c(c2)Nc2nccnc2S3)c(Cl)c1
148 to 152 °C | CCc1cc(NCc2ccc3c(c2)Nc2nccnc2S3)ccn1
230 to 235 °C | CCOC(=O)COc1ccc(NCc2ccc3c(c2)Nc2nccnc2S3)cn1
105 to 108 °C | CCOC(=O)CCCCCOc1ccc(NCc2ccc3c(c2)Nc2nccnc2S3)cn1
178 to 182 °C | O=C(c1ccccc1)N(Cc1ccc2c(c1)Nc1nccnc1S2)c1cccnc1
